ChEMBL document CHEMBL1201862, “PubChem BioAssay data set” (2004)
Active and inactive are the calls of the source.

Assays:
[1] = biological target: Peroxisome proliferator-activated receptor gamma/Nuclear receptor coactivator 3 (Homo sapiens, UniProt P37231); experiment: (§1) TR-FRET dose response biochemical High Throughput Screening assay for agonists of the steroid receptor coactivator 3 (SRC-3) recruitment by the peroxisome proliferator-activated receptor gamma (PPAR gamma): non-selective agonists. [Related pubchem assays: 1301 (Confirmation screen.), 1048 (Primary screen.)]; type: functional
[2] = biological target: Peroxisome proliferator-activated receptor gamma/Nuclear receptor coactivator 1 (Homo sapiens, UniProt P37231); experiment: as §1, with “1 (SRC-1)” for “3 (SRC-3)”, “assays (depositor defined):AID1300, AID1808, AID504735, AID631]” for “assays: 1301 (Confirmation screen.), 1048 (Primary screen.)]”; type: protein assay
Peroxisome proliferator-activated receptor gamma/Nuclear receptor coactivator 1, sequence (P37231 whole entry): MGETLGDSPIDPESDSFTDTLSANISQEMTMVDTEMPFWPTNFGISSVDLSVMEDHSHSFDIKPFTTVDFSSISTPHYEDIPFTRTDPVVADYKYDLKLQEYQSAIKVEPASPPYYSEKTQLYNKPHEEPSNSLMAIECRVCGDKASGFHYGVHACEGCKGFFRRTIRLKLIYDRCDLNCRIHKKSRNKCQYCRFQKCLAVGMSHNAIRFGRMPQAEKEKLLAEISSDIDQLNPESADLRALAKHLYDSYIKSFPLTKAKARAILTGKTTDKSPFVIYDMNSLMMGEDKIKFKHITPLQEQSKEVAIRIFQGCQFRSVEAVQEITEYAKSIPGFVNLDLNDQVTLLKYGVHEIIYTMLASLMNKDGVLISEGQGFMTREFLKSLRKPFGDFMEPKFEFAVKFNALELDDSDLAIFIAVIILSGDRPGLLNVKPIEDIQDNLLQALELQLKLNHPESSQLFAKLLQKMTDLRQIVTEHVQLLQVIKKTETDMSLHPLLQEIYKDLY
Peroxisome proliferator-activated receptor gamma/Nuclear receptor coactivator 1, sequence (Q15788 whole entry, further chain): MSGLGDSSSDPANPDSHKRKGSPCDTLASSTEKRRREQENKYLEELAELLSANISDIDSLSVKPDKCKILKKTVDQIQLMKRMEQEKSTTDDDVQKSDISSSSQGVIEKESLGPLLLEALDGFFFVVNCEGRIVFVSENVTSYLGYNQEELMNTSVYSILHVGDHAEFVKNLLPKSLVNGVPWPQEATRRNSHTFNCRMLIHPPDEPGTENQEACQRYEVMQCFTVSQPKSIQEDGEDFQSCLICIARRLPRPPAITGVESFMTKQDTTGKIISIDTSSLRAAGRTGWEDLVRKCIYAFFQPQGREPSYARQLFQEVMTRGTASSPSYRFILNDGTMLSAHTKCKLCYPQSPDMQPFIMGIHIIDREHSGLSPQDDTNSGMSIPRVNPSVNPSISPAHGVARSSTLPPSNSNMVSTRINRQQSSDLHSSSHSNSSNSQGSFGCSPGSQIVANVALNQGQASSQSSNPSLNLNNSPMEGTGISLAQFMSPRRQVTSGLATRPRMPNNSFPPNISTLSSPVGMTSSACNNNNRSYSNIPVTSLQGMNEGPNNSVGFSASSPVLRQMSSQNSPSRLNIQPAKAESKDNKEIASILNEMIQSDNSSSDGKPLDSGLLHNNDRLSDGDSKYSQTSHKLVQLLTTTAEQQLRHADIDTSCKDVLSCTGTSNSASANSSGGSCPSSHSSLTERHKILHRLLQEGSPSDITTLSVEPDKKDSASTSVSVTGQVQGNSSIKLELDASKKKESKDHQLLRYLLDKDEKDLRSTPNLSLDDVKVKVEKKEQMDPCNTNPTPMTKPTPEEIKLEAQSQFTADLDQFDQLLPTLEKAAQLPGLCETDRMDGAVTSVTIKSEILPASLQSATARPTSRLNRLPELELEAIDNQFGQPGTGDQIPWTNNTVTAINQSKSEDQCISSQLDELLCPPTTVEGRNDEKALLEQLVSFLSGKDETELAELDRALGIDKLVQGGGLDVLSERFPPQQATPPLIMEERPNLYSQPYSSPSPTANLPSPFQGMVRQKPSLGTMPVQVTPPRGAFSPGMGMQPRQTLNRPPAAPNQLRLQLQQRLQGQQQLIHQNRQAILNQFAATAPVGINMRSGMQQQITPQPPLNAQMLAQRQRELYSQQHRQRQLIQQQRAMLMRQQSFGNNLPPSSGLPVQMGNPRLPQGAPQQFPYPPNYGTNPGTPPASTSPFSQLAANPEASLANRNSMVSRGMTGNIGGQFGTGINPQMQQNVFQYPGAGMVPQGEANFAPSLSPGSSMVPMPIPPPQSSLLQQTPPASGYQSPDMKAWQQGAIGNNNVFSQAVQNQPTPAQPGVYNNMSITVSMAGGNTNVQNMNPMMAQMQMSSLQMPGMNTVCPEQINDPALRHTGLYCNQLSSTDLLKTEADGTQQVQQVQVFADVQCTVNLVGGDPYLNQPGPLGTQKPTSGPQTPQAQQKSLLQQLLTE

[3] = biological target: Peroxisome proliferator-activated receptor gamma/Nuclear receptor coactivator 2 (Homo sapiens, UniProt P37231); experiment: TR-FRET dose response biochemical High Throughput Screening assay for agonists of the steroid receptor coactivator 2 (SRC-2) recruitment by the peroxisome proliferator-activated receptor gamma (PPAR gamma): non-selective agonists. [Related pubchem assays: 1297, 1032 ]; type: functional
Peroxisome proliferator-activated receptor gamma/Nuclear receptor coactivator 2, sequence (P37231 whole entry): as the sequence (P37231 whole entry) above
Peroxisome proliferator-activated receptor gamma/Nuclear receptor coactivator 2, sequence (Q15596 whole entry, further chain): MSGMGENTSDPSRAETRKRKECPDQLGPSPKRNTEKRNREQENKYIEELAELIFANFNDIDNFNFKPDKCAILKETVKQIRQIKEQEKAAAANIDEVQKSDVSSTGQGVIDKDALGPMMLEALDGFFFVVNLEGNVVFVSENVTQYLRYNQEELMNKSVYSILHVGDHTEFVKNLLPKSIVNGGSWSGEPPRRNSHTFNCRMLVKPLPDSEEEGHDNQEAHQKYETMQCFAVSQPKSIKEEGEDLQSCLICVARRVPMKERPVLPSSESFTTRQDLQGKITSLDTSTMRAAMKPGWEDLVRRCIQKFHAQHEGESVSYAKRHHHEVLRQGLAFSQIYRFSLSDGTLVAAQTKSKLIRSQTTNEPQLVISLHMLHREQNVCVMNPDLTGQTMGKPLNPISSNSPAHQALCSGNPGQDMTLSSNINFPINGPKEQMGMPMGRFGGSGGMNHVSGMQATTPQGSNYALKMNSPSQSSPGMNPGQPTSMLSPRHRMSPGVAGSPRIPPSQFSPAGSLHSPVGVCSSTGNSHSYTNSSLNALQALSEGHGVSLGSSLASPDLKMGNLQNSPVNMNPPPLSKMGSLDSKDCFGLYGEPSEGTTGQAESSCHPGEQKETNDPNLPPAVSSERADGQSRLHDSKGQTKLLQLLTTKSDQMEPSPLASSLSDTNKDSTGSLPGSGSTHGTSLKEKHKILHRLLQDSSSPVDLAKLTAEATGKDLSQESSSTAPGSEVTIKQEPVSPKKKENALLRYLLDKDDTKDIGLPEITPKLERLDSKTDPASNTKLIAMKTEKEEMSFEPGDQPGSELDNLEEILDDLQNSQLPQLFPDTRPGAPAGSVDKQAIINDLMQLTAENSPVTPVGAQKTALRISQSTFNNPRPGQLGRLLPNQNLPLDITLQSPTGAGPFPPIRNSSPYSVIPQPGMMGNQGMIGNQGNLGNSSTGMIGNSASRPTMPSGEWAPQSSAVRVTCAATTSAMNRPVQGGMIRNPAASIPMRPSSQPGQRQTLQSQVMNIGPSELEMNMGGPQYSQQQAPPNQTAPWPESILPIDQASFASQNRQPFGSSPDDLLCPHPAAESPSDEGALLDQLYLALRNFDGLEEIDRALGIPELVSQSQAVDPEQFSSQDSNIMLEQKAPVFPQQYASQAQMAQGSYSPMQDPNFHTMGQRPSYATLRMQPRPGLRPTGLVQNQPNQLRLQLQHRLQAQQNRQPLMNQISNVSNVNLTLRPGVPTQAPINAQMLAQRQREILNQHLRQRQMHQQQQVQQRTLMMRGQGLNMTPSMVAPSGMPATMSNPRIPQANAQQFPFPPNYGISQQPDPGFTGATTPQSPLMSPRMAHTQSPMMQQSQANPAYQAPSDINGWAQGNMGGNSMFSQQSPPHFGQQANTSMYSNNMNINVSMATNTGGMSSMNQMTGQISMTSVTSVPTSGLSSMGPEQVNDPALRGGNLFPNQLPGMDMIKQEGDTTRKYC

HeLa = experiment: viability loss in HeLa cells – cell-based, 24 h, cherry-picked samples, cytotoxicity control, dose response (AID 504726); type: functional; settings: Homo sapiens;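 note: potency for cytotoxicity as loss of luminescence signal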
[4] = off-target signal loss in HeLa-CEM21 co-culture – HeLa F-luc CTL cells, cherry-picked, counter-screen for HIV-1 Env fusion inhibitor project, dose response (AID 652040); type: functional, cell-based;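 note: potency for signal decrease marking cytotoxic or nonspecific inhibition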
[5] = Luminescence Cell-Based Dose Retest to Confirm Inhibitors of Cancer Stem Cells. [Related pubchem assays (depositor defined):AID2717, AID2721]; type: functional; settings: Homo sapiens
[6] = blockers of HIV-1 ZM109 envelope-driven cell-cell fusion – HeLa effector, CEM target cells, luciferase, cherry-pick, dose response (AID 652058); type: functional, cell-based;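 note: luciferase signal from HIV-1 Env mediated cell-cell fusion of effector and target cells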
[7] = blockers of HIV-1 envelope-mediated cell-cell fusion – cherry-pick, dose response (AID 652057); type: functional, cell-based
[8] = biological target: T1, Corticotropin-releasing factor receptor 2/Corticotropin-releasing factor-binding protein (Homo sapiens, UniProt P24387+Q13324); experiment: activators of CRF receptor 2 with binding protein – uHTS hits, confirmation (AID 602473); type: functional; settings: read-out: EC50_Mean
T1 sequence (Q13324 whole entry): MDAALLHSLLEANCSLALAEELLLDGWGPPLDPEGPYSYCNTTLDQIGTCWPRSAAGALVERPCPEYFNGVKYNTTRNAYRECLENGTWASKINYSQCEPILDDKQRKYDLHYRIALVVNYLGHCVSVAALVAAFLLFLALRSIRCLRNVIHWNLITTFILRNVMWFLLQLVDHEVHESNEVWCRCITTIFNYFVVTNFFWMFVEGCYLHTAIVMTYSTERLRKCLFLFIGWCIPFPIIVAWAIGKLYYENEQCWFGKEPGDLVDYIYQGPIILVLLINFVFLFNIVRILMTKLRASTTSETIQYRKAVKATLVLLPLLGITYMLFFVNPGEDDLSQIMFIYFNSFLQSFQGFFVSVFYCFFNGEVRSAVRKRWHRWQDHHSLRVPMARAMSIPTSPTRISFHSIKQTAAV
T1 sequence (P24387 whole entry): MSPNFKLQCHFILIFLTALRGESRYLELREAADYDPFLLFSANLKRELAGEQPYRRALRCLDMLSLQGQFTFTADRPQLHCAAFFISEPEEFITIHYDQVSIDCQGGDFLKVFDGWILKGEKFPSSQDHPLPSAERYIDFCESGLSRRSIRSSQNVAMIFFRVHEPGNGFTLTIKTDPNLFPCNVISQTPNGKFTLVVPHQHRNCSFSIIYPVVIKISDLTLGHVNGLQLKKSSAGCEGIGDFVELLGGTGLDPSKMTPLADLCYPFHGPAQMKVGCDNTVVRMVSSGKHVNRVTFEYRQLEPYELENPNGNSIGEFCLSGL

[9] = blockers of CRF-binding protein–CRF-R2 complex – cell-based, uHTS hits, 384-well, dose response (AID 651639); type: functional, Homo sapiens; settings: read-out: IC50_Mean
[10] = biological target: T1, Corticotropin-releasing factor receptor 2/Corticotropin-releasing factor-binding protein; experiment: Dose Response confirmation of uHTS hits for small molecule antagonists of the CRF-binding protein and CRF-R2 receptor complex.; type: functional; settings: read-out: IC50_Mean
[11] = biological target: Luciferin 4-monooxygenase (Photinus pyralis, UniProt P08659); experiment: inhibition of purified Photinus pyralis luciferase – biochemical, luminescence, dose response (AID 1891)
[12] = general cell-killing toxicity readout – plate reader, dry powder samples, cytotoxicity control for PAX8 inhibitor project, dose response (AID 743021); type: functional, cell-based
Paired box protein Pax-8 = Paired box protein Pax-8 (Homo sapiens, UniProt Q06710); experiment: PAX8 transcriptional activity inhibition in RMG-I – RMG-I cells, luciferase, cherry-pick, dose response (AID 687027); type: functional, cell-based;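 note: luciferase reporter driven by Pax8 target thyroperoxidase promoter measured by SteadyGlo luminescence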
Paired box protein Pax-8, sequence (Q06710 whole entry): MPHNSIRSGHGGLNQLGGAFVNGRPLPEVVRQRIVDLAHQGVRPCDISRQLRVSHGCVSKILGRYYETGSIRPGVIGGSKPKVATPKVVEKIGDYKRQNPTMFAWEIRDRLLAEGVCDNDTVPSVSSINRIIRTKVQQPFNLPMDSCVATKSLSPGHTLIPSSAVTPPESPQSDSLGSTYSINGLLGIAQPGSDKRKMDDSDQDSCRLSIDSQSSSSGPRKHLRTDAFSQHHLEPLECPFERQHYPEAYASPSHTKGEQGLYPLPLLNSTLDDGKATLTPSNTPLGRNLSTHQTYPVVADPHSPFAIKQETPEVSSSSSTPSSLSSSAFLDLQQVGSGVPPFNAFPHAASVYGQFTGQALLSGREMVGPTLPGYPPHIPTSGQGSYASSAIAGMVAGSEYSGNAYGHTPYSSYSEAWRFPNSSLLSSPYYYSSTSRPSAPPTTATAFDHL

[13] = Luminescence Cell-Based Dose Confirmation HTS to Identify Inhibitors of Platelet Dense Granule Release. [Related pubchem assays: 1663 (Primary HTS), 1678 (Summary of Project)]; type: functional
Streptococcus = experiment: GAS UMAA2166 growth inhibition – luminescence, BacTiterGlo, counter-screen for streptokinase expression inhibitor project, dose response (AID 1915); type: functional, organism-based;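 note: potency for reduction of bacterial viability or growth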
[14] = tested on: Streptococcus sp. 'group A'; experiment: Streptococcus pyogenes SK(-)GAS viability under kanamycin – luminescence, BacTiterGlo, confirmation, counter-screen for streptokinase expression inhibitor project, dose response (AID 1900); type: functional, organism-based
[15] = HIV-1 AD8 envelope cell-cell fusion blockers – cherry-pick, dose response (AID 652062); type: functional, cell-based;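 note: luciferase signal from cell-cell fusion driven by HIV-1 clade B AD8 Env; potency is for inhibitors of fusion seen as a drop in luminescence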
Large T antigen = Large T antigen (Simian virus 40, UniProt P03070); type: functional, Betapolyomavirus macacae;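 note: Confirmatory-stage PubChem screen for compounds that inhibit SV40 T antigen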
Large T antigen, sequence (P03070 whole entry): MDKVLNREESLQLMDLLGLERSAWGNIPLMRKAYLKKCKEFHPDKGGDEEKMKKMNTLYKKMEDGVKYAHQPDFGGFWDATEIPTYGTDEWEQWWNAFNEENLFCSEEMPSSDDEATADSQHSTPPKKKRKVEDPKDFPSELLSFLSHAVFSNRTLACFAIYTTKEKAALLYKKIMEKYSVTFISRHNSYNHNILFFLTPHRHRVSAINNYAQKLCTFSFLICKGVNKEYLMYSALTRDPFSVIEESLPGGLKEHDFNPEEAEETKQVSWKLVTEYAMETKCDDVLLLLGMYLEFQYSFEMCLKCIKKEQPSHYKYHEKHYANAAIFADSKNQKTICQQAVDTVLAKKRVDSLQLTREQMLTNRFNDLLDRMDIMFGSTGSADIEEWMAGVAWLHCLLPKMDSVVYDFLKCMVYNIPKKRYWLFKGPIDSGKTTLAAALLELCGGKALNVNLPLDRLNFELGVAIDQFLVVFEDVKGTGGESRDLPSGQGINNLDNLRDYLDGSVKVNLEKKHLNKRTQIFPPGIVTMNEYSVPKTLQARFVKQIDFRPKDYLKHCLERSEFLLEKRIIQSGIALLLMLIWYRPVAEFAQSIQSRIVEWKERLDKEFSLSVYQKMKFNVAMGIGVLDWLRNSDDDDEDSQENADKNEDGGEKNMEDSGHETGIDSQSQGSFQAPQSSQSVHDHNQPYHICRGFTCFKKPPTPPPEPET

[16] = biological target: Heat shock protein HSP 90-alpha (Homo sapiens, UniProt P07900); type: functional, organism-based
[17] = biological target: T2, Tyrosyl-DNA phosphodiesterase 2 (Homo sapiens, UniProt O95551); experiment: potency against TDP2 phosphodiesterase activity – biochemical, epi absorbance, IC50, dose response (AID 743297)
T2 sequence (O95551 whole entry): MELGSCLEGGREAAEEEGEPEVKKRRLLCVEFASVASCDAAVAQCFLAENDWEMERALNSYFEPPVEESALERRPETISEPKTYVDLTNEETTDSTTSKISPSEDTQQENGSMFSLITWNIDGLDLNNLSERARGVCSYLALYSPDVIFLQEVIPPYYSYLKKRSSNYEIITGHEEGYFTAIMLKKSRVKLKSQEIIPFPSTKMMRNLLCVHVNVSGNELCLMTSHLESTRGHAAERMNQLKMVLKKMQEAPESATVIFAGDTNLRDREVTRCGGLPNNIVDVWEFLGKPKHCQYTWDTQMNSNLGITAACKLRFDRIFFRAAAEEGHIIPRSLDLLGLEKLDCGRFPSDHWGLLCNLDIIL

Aminopeptidase N = biological target: T3, Aminopeptidase N (Plasmodium falciparum FcB1/Columbia, UniProt O96935); experiment: malaria alanyl aminopeptidase activity blockers – biochemical, fluorogenic H-Leu-NHMec substrate, 1536-well (AID 1445); parameters: species or system Plasmodium falciparum 3D7, 3D7
T3 sequence (O96935 whole entry): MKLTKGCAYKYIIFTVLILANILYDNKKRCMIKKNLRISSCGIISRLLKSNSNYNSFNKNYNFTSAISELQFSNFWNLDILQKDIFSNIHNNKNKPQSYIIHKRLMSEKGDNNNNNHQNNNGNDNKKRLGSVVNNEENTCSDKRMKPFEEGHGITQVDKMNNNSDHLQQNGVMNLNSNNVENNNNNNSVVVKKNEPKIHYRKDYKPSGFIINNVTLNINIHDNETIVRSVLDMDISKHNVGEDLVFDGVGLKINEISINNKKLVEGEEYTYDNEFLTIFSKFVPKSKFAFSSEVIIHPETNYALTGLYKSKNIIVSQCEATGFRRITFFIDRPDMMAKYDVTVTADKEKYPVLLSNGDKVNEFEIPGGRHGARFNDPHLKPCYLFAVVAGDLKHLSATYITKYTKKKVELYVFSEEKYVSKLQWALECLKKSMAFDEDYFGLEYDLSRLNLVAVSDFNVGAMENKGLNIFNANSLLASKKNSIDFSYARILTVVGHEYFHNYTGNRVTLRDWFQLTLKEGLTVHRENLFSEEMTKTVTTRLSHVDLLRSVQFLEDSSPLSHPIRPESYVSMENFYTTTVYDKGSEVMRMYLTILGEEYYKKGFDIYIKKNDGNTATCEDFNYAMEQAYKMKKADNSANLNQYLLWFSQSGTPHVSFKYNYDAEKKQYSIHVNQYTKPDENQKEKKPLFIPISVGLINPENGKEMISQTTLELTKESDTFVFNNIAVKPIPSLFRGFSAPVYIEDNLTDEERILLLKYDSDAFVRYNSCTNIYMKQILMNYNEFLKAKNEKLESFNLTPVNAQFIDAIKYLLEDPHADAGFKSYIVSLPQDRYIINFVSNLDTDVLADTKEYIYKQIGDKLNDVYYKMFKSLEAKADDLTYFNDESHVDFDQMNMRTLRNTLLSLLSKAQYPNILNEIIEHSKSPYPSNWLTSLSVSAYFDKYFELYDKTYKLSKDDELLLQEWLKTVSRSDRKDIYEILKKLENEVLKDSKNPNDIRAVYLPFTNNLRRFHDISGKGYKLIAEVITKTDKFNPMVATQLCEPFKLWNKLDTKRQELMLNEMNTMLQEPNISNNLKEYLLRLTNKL

Cc1ccccc1S(=O)(=O)Nc1nc2ccccc2nc1N1CCOCC1
EC50 [1]: > 79.4 µM (not active) | EC50 [2]: 10.1 µM (inactive) | EC50 [3]: 11.8 µM (not active)

COc1ccccc1OCC(=O)Nc1nnc(-c2ccco2)s1
EC50 [1]: > 79.4 µM (not active) | EC50 [2]: 42.4 µM (inactive) | EC50 [3]: 32.1 µM (not active)

N#C/C(=C\c1ccc(-c2ccccc2[N+](=O)[O-])o1)C(N)=O
AC50 (HeLa): 83.5 µM (active)

COC(=O)C1=C(c2ccc(OC(F)(F)F)cc2)C[C@@H]2CC[C@H]1N2C(=O)NC1CCCCC1
AC50 (HeLa): > 350 µM (inactive)

CCCCCCOc1ccc(OC(=O)c2ccncc2)cc1
AC50 [4]: 5.4 µM (active) | AC50 [5]: 3.67 µM (active) | AC50 [6]: 44.6 µM (active) | AC50 [7]: 4.71 µM (active)

Cc1ccc(SCc2noc(-c3c(C)noc3C)n2)cc1
EC50 [8]: > 53 µM (inactive) | IC50 [9]: > 20 µM (inactive) | IC50 [10]: < 0.368 µM (active)

Fc1ccccc1CSc1ncnc2c1oc1ccccc12
EC50 [1]: > 79.4 µM (not active) | EC50 [2]: 44.1 µM (inactive) | EC50 [3]: 20 µM (not active)

CCOc1ccc(C(=O)O/N=C(\N)c2ccccn2)cc1
EC50 [11]: 0.847 µM (active) | AC50 [12]: 34.9 µM (active) | AC50 (Paired box protein Pax-8): 7.43 µM (active) | EC50 [13]: 0.499 µM (active)

CCn1nc(C)c(NC(=O)Nc2cccc(Cl)c2Cl)c1C
EC50 [8]: > 53 µM (inactive) | IC50 [9]: 11 µM (active) | IC50 [10]: 36.7 µM (active)

COc1ccccc1C1CC(c2ccccc2)=NN1C(S)=Nc1ccccc1 (stereo unspecified)
EC50 [1]: 80.4 µM (not active) | EC50 [2]: 9.45 µM (active) | EC50 [3]: 10.6 µM (not active)

Cc1cc(O)nc(SCC(=O)Nc2ccc(Br)cc2)c1C#N
IC50 [9]: 15.4 µM (active) | EC50 (Streptococcus): 20.1 µM (active) | EC50 [14]: 6.89 µM (active)

COc1ccc(N(CC(=O)NCCSCc2ccc(Cl)cc2)S(C)(=O)=O)cc1Cl
AC50 [4]: 5.7 µM (active) | AC50 [15]: 6.47 µM (active) | AC50 [6]: 4.11 µM (active) | AC50 [7]: 2.9 µM (active)

COc1cc(-c2nc3cnccn3c2Nc2ccccc2)ccc1O
IC50 (Large T antigen): 5.05 µM (active)

O=C1NC(=O)N(Cc2ccc(F)cc2)C(=O)/C1=C\c1ccoc1
IC50 (Large T antigen): 56.4 µM (active)

Cc1ccc(S(=O)(=O)Nc2ccc3cc([N+](=O)[O-])ccc3c2[N+](=O)[O-])cc1
EC50 [8]: > 53 µM (inactive) | IC50 [9]: 15 µM (active) | AC50 [16]: 14.9 µM (active) | IC50 [10]: 6.45 µM (active)

Fc1ccc(Nc2cncc(-c3ccsc3)c2)cc1Cl
IC50 [17]: 13.6 µM (inactive)

COc1cc(/C=N/N2C(=O)CSC2=S)cc(Br)c1O
IC50 (Aminopeptidase N): 107 µM (active) | IC50 (Large T antigen): 12.8 µM (active)

CC(=O)C1=C(C)N(Cc2ccc(Br)cc2)C(=S)NC1c1cccc(Cl)c1 (stereo unspecified)
AC50 [4]: 10 µM (active) | AC50 [15]: 28.4 µM (active) | AC50 [6]: 6.83 µM (active) | AC50 [7]: 4.14 µM (active)

C[C@H](CO)N1C[C@H](C)[C@H](CN(C)S(=O)(=O)c2ccccc2)Oc2ccc(NC(=O)Nc3ccccc3)cc2CC1=O
AC50 [15]: 3 µM (active) | AC50 [6]: 0.414 µM (active) | AC50 [7]: < 0.26 µM (active)
